Eight molecules from PubChem BioAssay (NCI) can be followed below.

Test systems include 786-0 renal; HCC-2998 colon; HCT-116 colon; KM12 colon; SK-MEL-5 melanoma; SN12C renal; SNB-19 CNS; SNB-75 CNS; U251 CNS; UACC-62 melanoma.
Assay in all cases: NCI anticancer screen, dose series, 48 h

Each structure is given as a SMILES string.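 The compound was tested at five concentrations on cells cultured in 96-well plates, with a 48-hour exposure period. Abbreviation: GI50, concentration required for 50% inhibition of growth. The concentration for full growth arrest is given as TGI.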

Turning to `C[C@]12CC[C@H]3[C@@H](C[C@@H]4SC(Nc5cccc(F)c5)=N[C@@]45CC(=O)CC[C@]35C)[C@@H]1CCC2=O`, the GI50 in the assay on 786-0 renal is 1.43 µM; in the assay on HCC-2998 colon it was 3.55 µM; with HCT-116 colon it was 1.59 µM; with KM12 colon it was 3 µM; with SK-MEL-5 melanoma, 2.02 µM; in the assay with SN12C renal it was 2.36 µM. Besides, the GI50 is 2.33 µM in the assay on SNB-19 CNS, 1.52 µM in the assay on SNB-75 CNS, 1.59 µM in the assay with U251 CNS and 1.54 µM with UACC-62 melanoma. Also, the TGI in the assay with 786-0 renal amounted to 2.83 µM; in the assay with HCC-2998 colon, 14.6 µM; in the assay on HCT-116 colon, 3.24 µM; with KM12 colon, 12.4 µM; with SK-MEL-5 melanoma, 4.32 µM; in the assay with SN12C renal it was 6.02 µM. In addition, the TGI was found to be 5.69 µM in the assay on SNB-19 CNS, 4.94 µM with SNB-75 CNS, 3.68 µM in the assay on U251 CNS and 3.12 µM with UACC-62 melanoma.

Take `O=C(Oc1ccc([N+](=O)[O-])cc1)N1CCC(C(O)(c2ccc3c(c2)OCO3)c2ccc3c(c2)OCO3)CC1`: the GI50 in the assay with 786-0 renal, with HCC-2998 colon, in the assay with HCT-116 colon, in the assay on KM12 colon, in the assay with SK-MEL-5 melanoma and in the assay on SN12C renal was more than 100 µM in each case. Moreover, the GI50 in the assay on SNB-19 CNS, in the assay with SNB-75 CNS, in the assay on U251 CNS and in the assay on UACC-62 melanoma was more than 100 µM throughout. Further, the TGI with 786-0 renal, in the assay with HCC-2998 colon, in the assay on HCT-116 colon, with KM12 colon, in the assay on SK-MEL-5 melanoma and with SN12C renal was more than 100 µM in each case. In addition, the TGI with SNB-19 CNS, in the assay with SNB-75 CNS, in the assay with U251 CNS and in the assay with UACC-62 melanoma was more than 100 µM each time.

Take `COCCOC(C)C(/C=N/NC(N)=S)=N/NC(N)=S` (stereo not given): the GI50 in the assay with 786-0 renal was more than 100 µM; in the assay on HCC-2998 colon, more than 100 µM; in the assay on HCT-116 colon it was 0.0189 µM; with KM12 colon, more than 100 µM; with SK-MEL-5 melanoma, more than 100 µM; with SN12C renal it was more than 100 µM. Further, the GI50 in the assay with SNB-19 CNS, in the assay on SNB-75 CNS, in the assay on U251 CNS and in the assay with UACC-62 melanoma was more than 100 µM each time. The TGI in the assay with 786-0 renal, in the assay with HCC-2998 colon, with HCT-116 colon, in the assay with KM12 colon, in the assay on SK-MEL-5 melanoma and in the assay on SN12C renal was more than 100 µM throughout. Moreover, the TGI in the assay with SNB-19 CNS, in the assay on SNB-75 CNS, with U251 CNS and in the assay on UACC-62 melanoma was more than 100 µM in each case.

Take `O=[N+]([O-])c1ccc(N(CCO)CCO)c2c1no[n+]2[O-]`: the GI50 in the assay on 786-0 renal is 1.8 µM; with HCC-2998 colon it was 1.26 µM; with HCT-116 colon, 1.1 µM; in the assay on KM12 colon, 1.16 µM; in the assay on SK-MEL-5 melanoma, 1.09 µM; in the assay with SN12C renal it was 1.61 µM. Besides, the GI50 in the assay with SNB-19 CNS is 1.76 µM; in the assay with SNB-75 CNS, 0.961 µM; in the assay with U251 CNS, 0.655 µM; with UACC-62 melanoma, 1.24 µM. Moreover, the TGI in the assay on 786-0 renal was 4.21 µM; with HCC-2998 colon, 3.46 µM; in the assay on HCT-116 colon it was 3.03 µM; in the assay with KM12 colon, 2.53 µM; in the assay with SK-MEL-5 melanoma it was 2.31 µM; in the assay on SN12C renal it was 9.28 µM. The TGI came to 5.9 µM in the assay with SNB-19 CNS, 5.47 µM with SNB-75 CNS, 2.37 µM in the assay with U251 CNS and 3.56 µM with UACC-62 melanoma.

Turning to `CC(=O)Nc1ccc(/C=c2\sc3nnc(/C=C/c4ccccc4)n3c2=O)cc1`, the TGI in the assay on 786-0 renal, in the assay with HCC-2998 colon, in the assay with HCT-116 colon, in the assay on KM12 colon, with SK-MEL-5 melanoma and in the assay with SN12C renal was more than 50 µM each time. The TGI in the assay on SNB-19 CNS, with SNB-75 CNS, in the assay with U251 CNS and with UACC-62 melanoma was more than 50 µM throughout.

In the case of `CC(NC1CCC[C@H]1O)c1ccccc1` (mixture of isomers), the TGI in the assay on 786-0 renal, with HCC-2998 colon, in the assay on HCT-116 colon, with KM12 colon, in the assay with SK-MEL-5 melanoma and in the assay with SN12C renal was more than 100 µM in each case. For the same molecule, the TGI with SNB-19 CNS, in the assay with SNB-75 CNS, with U251 CNS and in the assay with UACC-62 melanoma was more than 100 µM throughout.

As for `Cc1cc(NC(=O)CCc2ccc(N3C(N)=NC(N)=NC3(C)C)cc2)ccc1S(=O)(=O)F`, the GI50 in the assay on 786-0 renal is 0.291 µM; in the assay with HCC-2998 colon it was 0.709 µM; in the assay on HCT-116 colon, 0.62 µM; in the assay with KM12 colon it was 0.338 µM; in the assay with SK-MEL-5 melanoma, 0.125 µM; with SN12C renal, 0.447 µM. Also, the GI50 with SNB-19 CNS was 0.269 µM; in the assay on SNB-75 CNS, 0.517 µM; in the assay on U251 CNS, 0.148 µM; in the assay with UACC-62 melanoma it was 0.14 µM. Further, the TGI was more than 100 µM in the assay on 786-0 renal; more than 100 µM in the assay with HCC-2998 colon; more than 100 µM in the assay with HCT-116 colon; more than 63.7 µM in the assay on KM12 colon; 19.1 µM with SK-MEL-5 melanoma; more than 100 µM with SN12C renal. The TGI with SNB-19 CNS was more than 100 µM; in the assay on SNB-75 CNS, 80.1 µM; in the assay with U251 CNS it was more than 100 µM; with UACC-62 melanoma, more than 100 µM.

As for `CN(C)CC1(C)CC/C(=C\c2ccc3c(c2)OCO3)C1=O` (stereo not given), the TGI in the assay with 786-0 renal, in the assay on HCC-2998 colon, in the assay with HCT-116 colon, with KM12 colon, with SK-MEL-5 melanoma and with SN12C renal was more than 100 µM in each case. Further, the TGI in the assay with SNB-19 CNS, in the assay with SNB-75 CNS, with U251 CNS and in the assay on UACC-62 melanoma was more than 100 µM in each case.
